Tests used:
[1] = Biaxin competes for the liver detoxification system that inactivates dexamethasone; cited from earlier work
[2] = side effects / peripheral neuropathy in the treated multiple myeloma patient; assay type: in vivo, human
Protocol: The patient had previously only used IV bortezomib, since it had been effective up to that point. Resistance to bortezomib is thought to result from overproduction of proteosomal subunits, that then require a higher concentration of drug before enough subunits are blocked to reduce the degradation of misfolded myeloma antibodies. The highest recommended dose of bortezomib is 1.3 mg/m^2, since the next higher dose of 1.7 mg/m^2 regularly produces grade 3-4 peripheral neuropathy. […] The patient reasoned that reducing the toxicity of bortezomib by using SubQ rather than IV and using the FMED to induce protective stress-resistance pathways in their neural and supporting glial cells might allow the use of “toxic” doses of bortezomib. […] The first two cycles were performed to verify whether the approach worked. […] Since the “toxic” bortezomib dose was essentially monotherapy, a different IMID was added for a third cycle in the hope that the patient's MM cells would be sensitive and one would be treating with at least two drugs. One third of patients resistant to lenalidomide respond to pomalidomide, which was thus added during the third cycle.

multiple myeloma [3] = experiment: free kappa light chain tumor marker in a multiple myeloma patient (case report); assay type: in vivo, human; conditions: for response of free kappa light chain tumor marker / myeloma cells to the regimen: single patient, successive regimens 2006-2012 and later
multiple myeloma [4] = conditions: cited from earlier work
[5] = cited from earlier work
[6] = SubQ compared with IV bortezomib

CC[C@H]1OC(=O)[C@H](C)[C@@H](O[C@H]2C[C@@](C)(OC)[C@@H](O)[C@H](C)O2)[C@H](C)[C@@H](O[C@@H]2O[C@H](C)C[C@H](N(C)C)[C@H]2O)[C@](C)(OC)C[C@@H](C)C(=O)[C@H](C)[C@@H](O)[C@]1(C)O [Biaxin]
half-life of dexamethasone [1]: increases

CC(C)C[C@H](NC(=O)[C@H](Cc1ccccc1)NC(=O)c1cnccn1)B(O)O [bortezomib]
side-effects ([2]; subcutaneous bortezomib 1.7 mg/m^2 with FMED): minimal side-effects | peripheral neuropathy progression ([2]; three cycles of SubQ "toxic" bortezomib + FMED (pomalidomide added in third cycle)): only minor progression | tumor markers response (multiple myeloma [3]; SubQ bortezomib at "toxic" dose 1.7 mg/m^2 combined with FMED, FIG. 3): rapid drop | bortezomib sensitivity (multiple myeloma [3]; subcutaneous bortezomib 1.7 mg/m^2 with FMED, bortezomib-resistant patient): restore bortezomib sensitivity | effectiveness of SubQ versus IV administration (multiple myeloma [4]; [6]): as effective as IV bortezomib | side effects of SubQ versus IV administration [5, 6]: reduced side effects | peripheral neuropathy grade ([5]; dose of 1.7 mg/m^2): 3-4

CC(C)C[C@H](NC(=O)[C@H](CCc1ccccc1)NC(=O)CN1CCOCC1)C(=O)N[C@@H](Cc1ccccc1)C(=O)N[C@@H](CC(C)C)C(=O)[C@@]1(C)CO1 [carfilzomib]
response of free kappa light chain tumor marker / myeloma cells to the regimen (multiple myeloma [3]): ineffective

Nc1cccc2c1C(=O)N(C1CCC(=O)NC1=O)C2=O (centres unmarked) [pomalidomide]
fraction of patients resistant to lenalidomide that respond (multiple myeloma [4]; lenalidomide-resistant patients): One third

Nc1cccc2c1CN(C1CCC(=O)NC1=O)C2=O (centres unmarked) [revlimid, lenalidomide]
response of free kappa light chain tumor marker / myeloma cells to the regimen (multiple myeloma [3]): developed resistance
